Measured values reported in US9937185B2, “Imidazopyridine compounds and uses thereof” (NEOMED INSTITUTE, priority 2013, dated 2018).

Legend:
[1] = biological target: T1, hP2X3 (human Purinergic P2X receptors subtype 3) (Homo sapiens, UniProt P56373); assay: Fluo-4 calcium mobilization assay (FDSS7000), antagonists at human P2X3 receptor in RLE/hP2X3 cells; assay type: cell-based; conditions: RLE cells stably expressing hP2X3; 20 min preincubation; 2 uM ATP
T1 construct: expressed in transfected cells; host or cells: RLE cells (rat liver endothelium, ATCC)
T1 sequence (P56373 1-397): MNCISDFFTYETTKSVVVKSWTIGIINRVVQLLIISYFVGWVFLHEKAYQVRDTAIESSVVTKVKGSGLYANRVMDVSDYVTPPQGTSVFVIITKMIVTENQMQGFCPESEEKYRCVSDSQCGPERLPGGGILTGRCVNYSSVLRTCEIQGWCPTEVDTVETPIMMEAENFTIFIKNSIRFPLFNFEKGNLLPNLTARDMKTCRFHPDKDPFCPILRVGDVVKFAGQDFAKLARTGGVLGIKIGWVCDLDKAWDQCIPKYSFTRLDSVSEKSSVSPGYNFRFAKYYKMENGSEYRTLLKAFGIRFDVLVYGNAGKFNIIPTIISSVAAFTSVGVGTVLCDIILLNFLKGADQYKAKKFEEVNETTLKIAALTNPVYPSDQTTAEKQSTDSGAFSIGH
Protocol: The antagonist properties of compounds in the present invention were assayed as inhibitors of intracellular calcium increase induced by activation of hP2X3 (human Purinergic P2X receptors subtype 3, accession number AB016608 for clone A and accession number NM_002559 for clone B), expressed in RLE cells (rat liver […], ATCC. The RLE/hP2X3 cells were grown in William's medium 1× (Gibco, 12551-032), supplemented with 10% Fetal bovine serum (Wisent, 090850), 2 mM L-Glutamine (Wisent, 609-065-EL), and 600 μg/mL Geneticin G-418 (Wisent, 61234) in a humidified incubator (5% CO2 and 37° C.).
Fluo-4 assay on FDSS7000 (Hamamatsu) was performed using cryopreserved RLE cells stably expressing hP2X3 plated in 384 well plates, 24 hr before the experiment at a density appropriate for obtaining the desired final confluence. After processing the cell plates with Fluo-4 and performing a subsequent incubation followed by washing steps, a double addition was carried out. The first addition included the test compounds diluted in HBSS buffer containing 2 mM CaCl2 preincubated for 20 min before a second addition. The second addition included 2 uM of ATP. Calcium mobilization was measured with the FDSS7000 over a time lapse of 3 min, and fluorescent counts were exported for analysis. […] Hill coefficients and % inhibitions can also be determined.

[2] = system: rat FCA 96 hr paw model of inflammatory pain, heat hyperalgesia; assay: Rat FCA 96 hr paw model of inflammatory pain: heat hyperalgesia (Plantar Test); assay type: in vivo; conditions: oral dosing 0.3-1-3-10-20 μmol/kg, 96 h after FCA
Protocol: (§1) One of the compounds of the present invention was evaluated in an in vivo model of inflammatory pain.
(§2) Male Sprague-Dawley rats (Charles River, St-Constant, Qc, CAN) weighing 200-225 g were utilized for the animal experiment studies. The animals were group-housed in polycarbonate, ventilated cages (filter top) in a controlled environment room (12-h light/dark cycle, 20.5-23.5° C., relative humidity: 40-70%) with food (14% Protein Rodent Maintenance Diet, Harlan Teklad, Madisson, Wis., USA) and water ad libidum.
Inflammation was induced by injection of a single 40 μl Freund's complete adjuvant (FCA) intra-plantar injection into the rat's left hindpaw. All experiments were conducted 96h after FCA administration. […]
Heat hyperalgesia (Plantar Test) was assessed using a Paw Thermal Stimulator to apply a controlled heat to the plantar surface of the affected paw. […] The heat source and timer were then turned on simultaneously; when the animal withdrew the hind paw the number of seconds was recorded. […]
Satellite animals were used to monitor the free plasma concentration of example 15 at the doses and time points used in the nociceptive tests. Free plasma EC50 values in behavioral studies were determined from 4-point concentration-response curves using non-linear regression and a sigmoidal variable slope logistic model (Prism 4.03, GraphPad Software Inc., USA).

[3] = system: rat FCA 96 hr paw model of inflammatory pain, mechanical hyperalgesia; assay: Rat FCA 96 hr paw model of inflammatory pain: mechanical hyperalgesia (Ugo Basile analgesy meter); assay type: in vivo; conditions: oral dosing 0.3-1-3-10-20 μmol/kg, 96 h after FCA
Protocol: as §1, §2
Inflammation was induced by injection of a single 40 μl Freund's complete adjuvant (FCA) intra-plantar injection into the rat's left hindpaw. All experiments were conducted 96h after FCA administration. Twenty-four hours prior to behavioral testing animals were brought to the laboratory for acclimatization to the new environment. Animals were sacrificed immediately after data acquisition.
Mechanical hyperalgesia was assessed using the Ugo Basile analgesy meter (Ugo Basile, Comerio, Italy) Animals were gently restrained, and a steadily increasing pressure was applied to the dorsal surface of a hind paw via a probe with a dome-shaped tip (diameter of 1 mm). The pressure required to elicit paw withdrawal was determined. An assay cut off was set at 295 g. […] Paw withdrawal thresholds were calculated as the mean of the two values. […]

Row | SMILES | IC50 [1] [µM] | also measured
1 | CNC(=O)c1ccc(-c2nc3cc(C)ccn3c2CC2CCN(C(C)=O)CC2)c(C)c1 [Example 46, 4-(3-((1-acetylpiperidin-4-yl)methyl)-7-methylimidazo[1,2-a]pyridin-2-yl)-N,3-dimethylbenzamide] | 0.066 | –
2 | CNC(=O)c1ccc(-c2nc3cc(C)ccn3c2CC2CCCN(C(=O)OC)C2)c(C)c1 (stereo not shown) [Example 37] | 0.011 | –
3 | CNC(=O)c1cc(C)c(-c2nc3cc(C)ccn3c2C[C@@H]2CN(C(C)=O)CCO2)cc1F [Example 19] | 0.158 | –
4 | CNC(=O)c1ccc(-c2nc3cc(C)ccn3c2CC2CCN(C(=O)OC)C2)c(C)c1 (stereo not shown) [Example 41] | 0.084 | –
5 | CCC(=O)N1CCO[C@H](Cc2c(-c3c(F)cc(C(=O)NC)cc3F)nc3cc(C)ccn23)C1 [Example 35] | 0.016 | –
6 | CNC(=O)c1ccc(-c2nc3cc(C)ccn3c2CC2CCN(C(=O)OC)CC2)c(C)c1 [Example 45, methyl 4-((7-methyl-2-(2-methyl-4-(methylcarbamoyl)phenyl)imidazo[1,2-a]pyridin-3-yl)methyl)piperidine-1-carboxylate] | 0.026 | –
7 | CNC(=O)c1ccc(-c2nc3cc(C)ccn3c2C[C@@H]2CN(C(=O)OC)CCO2)c(C)c1 [Example 22] | 0.045 | –
8 | CNC(=O)c1ccc(-c2nc3cc(C#N)ccn3c2C[C@H]2CN(C(=O)OC)CCO2)c(C)c1 [Example 36] | 0.114 | –
9 | CNC(=O)c1ccc(-c2nc3cc(C)ccn3c2C[C@@H]2CN(C(C)=O)CCO2)c(C)c1 [Example 47] | 0.087 | –
10 | CCC(=O)N1CCO[C@@H](Cc2c(-c3cc(F)c(C(=O)NC)cc3C)nc3cc(Cl)ccn23)C1 [Example 26] | 0.011 | –
11 | CNC(=O)c1ccc(-c2nc3cc(C)ccn3c2CC2CCN(C(C)=O)C2)c(C)c1 (stereo not shown) [Example 44] | 0.103 | –
12 | CNC(=O)c1cc(F)c(-c2nc3cc(C)ccn3c2C[C@H]2CN(C(=O)OC)CCO2)c(F)c1 [Example 15, (S)-methyl-2-((2-(2,6-difluoro-4-(methylcarbamoyl)phenyl)-7-methylimidazo[1,2-a]pyridin-3-yl)methyl)morpholine-4-carboxylate] | – | reversal of heat hyperalgesia [2]: free plasma concentration dependent reversal; reversal of mechanical hyperalgesia [3]: free plasma concentration dependent reversal
13 | CNC(=O)c1ccc(-c2nc3cc(Cl)ccn3c2C[C@@H]2CN(C(C)=O)CCO2)c(C)c1 [Example 27] | 0.111 | –
14 | CNC(=O)c1cc(F)c(-c2nc3cc(C)ccn3c2C[C@H]2CN(C(C)=O)CCO2)cc1F [Example 23] | 0.018 | –
15 | CNC(=O)c1ccc(-c2nc3cc(C)ccn3c2CC2CC(C)N(C(C)=O)C2)c(C)c1 (stereo not shown) [Example 42] | 0.059 | –

More lines, main results first:

Row | IC50 [1] [µM] | SMILES | also measured
16 | 0.003 | CNC(=O)c1cc(F)c(-c2nc3cc(C)ccn3c2C[C@H]2CN(C(C)=O)CCO2)c(F)c1 [Example 32] | –
17 | 0.006 | CCC(=O)N1CCO[C@@H](Cc2c(-c3cc(F)c(C(=O)NC)cc3C)nc3cc(C)ccn23)C1 [Example 17] | –
18 | 0.01 | CNC(=O)c1cc(C)c(-c2nc3cc(C)ccn3c2C[C@H]2CN(C(=O)OC)CCO2)cc1F [Example 24] | –
19 | 0.007 | CNC(=O)c1cc(C)c(-c2nc3cc(C)ccn3c2C[C@H]2CN(C(C)=O)CCO2)cc1F [Example 18] | –
20 | 0.01 | CNC(=O)c1ccc(-c2nc3cc(C)c(F)cn3c2C[C@H]2CN(C(C)=O)CCO2)c(C)c1 [Example 39] | –
21 | 0.01 | CNC(=O)c1ccc(-c2nc3cc(C)ccn3c2CC2CCCN(C(C)=O)C2)c(C)c1 (stereo not shown) [Example 38] | –
22 | 0.007 | CNC(=O)c1ccc(-c2nc3cc(C)ccn3c2C[C@H]2CN(C(=O)OC)CCO2)c(C)c1 [Example 21] | –
23 | 0.007 | CCNC(=O)c1ccc(-c2nc3cc(C)ccn3c2C[C@H]2CN(C(C)=O)CCO2)c(C)c1 [Example 33] | –
24 | 0.006 | CNC(=O)c1cc(F)c(-c2nc3cc(Cl)ccn3c2C[C@H]2CN(C(=O)OC)CCO2)c(F)c1 [Example 28] | –
25 | 0.005 | CNC(=O)c1cc(F)c(-c2nc3cc(Cl)ccn3c2C[C@H]2CN(C(C)=O)CCO2)c(F)c1 [Example 29] | –
26 | 0.004 | CNC(=O)c1ccc(-c2nc3cc(C)ccn3c2C[C@H]2CN(C(C)=O)CCO2)c(C)c1 [Example 20] | –
27 | 0.005 | CCC(=O)N1CCO[C@@H](Cc2c(-c3ccc(C(=O)NC)cc3C)nc3cc(C)ccn23)C1 [Example 31] | –
28 | 0.006 | CCC(=O)N1CCO[C@@H](Cc2c(-c3c(F)cc(C(=O)NC)cc3F)nc3cc(Cl)ccn23)C1 [Example 30] | –
29 | 0.007 | CNC(=O)c1ccc(-c2nc3cc(Cl)ccn3c2C[C@H]2CN(C(C)=O)CCO2)c(C)c1 [Example 25] | –
30 | 0.003 | CCC(=O)N1CCO[C@@H](Cc2c(-c3c(F)cc(C(=O)NC)cc3F)nc3cc(C)ccn23)C1 [Example 16] | –
